The values below come from PMC10056567, “Structural Insights into the Ligand–LsrK Kinase Binding Mode: A Step Forward in the Discovery of Novel Antimicrobial Agents” (Molecules, 2023).

In experiment [1] the target is T1, LsrK (ecLsrK) (Escherichia coli, UniProt P77432). As to the kind of experiment: tryptophan fluorescence quenching, modified Stern-Volmer. Also noted: 530 residues. Type of experiment: binding. The following applies: 0.1 uM LsrK, PBS pH 7.4, 25 °C.
Experiment [2] concerns the target T1, LsrK (ecLsrK). Description: biochemical.

SMILES strings stand for the structures.

T1 sequence (P77432 whole entry): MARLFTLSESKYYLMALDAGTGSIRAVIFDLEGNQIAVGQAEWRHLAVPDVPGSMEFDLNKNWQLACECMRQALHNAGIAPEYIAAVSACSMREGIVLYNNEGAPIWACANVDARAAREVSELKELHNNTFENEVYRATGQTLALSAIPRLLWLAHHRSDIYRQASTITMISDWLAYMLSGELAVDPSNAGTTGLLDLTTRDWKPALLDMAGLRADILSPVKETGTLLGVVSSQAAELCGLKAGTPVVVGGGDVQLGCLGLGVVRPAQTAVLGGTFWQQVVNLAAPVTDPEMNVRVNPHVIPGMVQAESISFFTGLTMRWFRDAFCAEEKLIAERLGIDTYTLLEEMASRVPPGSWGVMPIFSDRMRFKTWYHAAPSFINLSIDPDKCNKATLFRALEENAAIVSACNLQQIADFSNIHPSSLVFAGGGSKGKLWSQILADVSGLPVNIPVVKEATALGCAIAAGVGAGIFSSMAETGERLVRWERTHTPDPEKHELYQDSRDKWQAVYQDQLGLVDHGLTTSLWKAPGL

The compound `COc1cc(C)cc2cc3c(c(O)c12)C(=O)CC[C@H]3O` [(R)-ASME] had a Kd at LsrK (ecLsrK) [1] of 190 nM.

`COC(=O)[C@@H]1OC(=O)C[C@@]1(O)C(=O)OC` [Hib-ester, dimethyl (2R,3S)-3-hydroxy-5-oxotetrahydrofuran-2,3-dicarboxylate]: on LsrK (ecLsrK) [1], the affinity, expressed as Kd, was 78 nM.

With `Nc1ncnc2c1ncn2[C@@H]1O[C@H](COP(=O)(O)OP(=O)(O)OP(=O)(O)O)[C@@H](O)[C@H]1O` [ATP], on LsrK (ecLsrK) [2], the dissociation constant (Kd) was found to be 5070 ± 230 nM.

Regarding `O=CC1=C(O)C=CCO1` [Hib-carbaldehyde, 5-hydroxy-2H-pyran-6-carbaldehyde], at LsrK (ecLsrK) [1], the equilibrium dissociation constant (Kd) was 140 nM.

On LsrK (ecLsrK) [1], `Cc1cc(O)c(C=O)c2c1C(=O)Oc1c(COC(=O)/C=C/C(=O)O)c(O)c(C(=O)O)c(C)c1O2` [FP, fumarprotocetraric acid] registered a dissociation constant Kd of 217 ± 8 nM.

The term Kd denotes the free concentration of one partner at which half of the binding sites on the other are occupied at equilibrium, for simple one-to-one binding. Higher therefore signals weaker binding.
